Earlier results on one molecule are cited in patent US6730813B2, “Method for producing n-(phosphonomethyl) glycine” (Monsanto Technology LLC, priority 2000, dated 2004).

Like-named read-outs stand apart in the source and are kept apart here.

Regarding `O=C(O)CNCP(=O)(O)O` [glyphosate, N-(phosphonomethyl)glycine], the “solubility in organic solvents” value (organic solvents, compared with water) is listed as “much lower”. Further, the solubility in water (5° C.) is given as 0.8%, the solubility in water (20° C.) is 1.1% and the solubility in water (95° C.) is listed as 6.5%.
